Measurements: ChEMBL document CHEMBL5113541, “Design, Synthesis, and Monoamine Oxidase B Selective Inhibitory Activity of N-Arylated Heliamine Analogues” (ACS Med Chem Lett, 2022)
pIC50: −log10 of the molar value. ≈ marks a conversion by molar mass, not a printed value.

Experiments:
[1] = Lipophilicity, log D of the compound at pH 7.4; assay type: physicochemical; details: buffer
[2] = Metabolic stability in human liver microsome assessed as compound remaining at 500 uM measured at 60 mins by LC-MS/MS method; assay type: ADME; details: liver microsomes, read-out: Stability
[3] = Metabolic stability in human liver microsome assessed as compound remaining at 500 uM measured at 10 mins by LC-MS/MS method; assay type: ADME; details: liver microsomes, read-out: Stability
[4] = Metabolic stability in mouse liver microsome assessed as compound remaining at 500 uM measured at 10 mins by LC-MS/MS method; assay type: ADME; details: liver microsomes, read-out: Stability
[5] = target: T1, MAO-B (amine oxidase [flavin-containing] B) (Homo sapiens, UniProt P27338); experiment: Inhibition of human MAO-B assessed as residual activity at 10 uM relative to control; details: read-out: Activity
T1 sequence (P27338 whole entry): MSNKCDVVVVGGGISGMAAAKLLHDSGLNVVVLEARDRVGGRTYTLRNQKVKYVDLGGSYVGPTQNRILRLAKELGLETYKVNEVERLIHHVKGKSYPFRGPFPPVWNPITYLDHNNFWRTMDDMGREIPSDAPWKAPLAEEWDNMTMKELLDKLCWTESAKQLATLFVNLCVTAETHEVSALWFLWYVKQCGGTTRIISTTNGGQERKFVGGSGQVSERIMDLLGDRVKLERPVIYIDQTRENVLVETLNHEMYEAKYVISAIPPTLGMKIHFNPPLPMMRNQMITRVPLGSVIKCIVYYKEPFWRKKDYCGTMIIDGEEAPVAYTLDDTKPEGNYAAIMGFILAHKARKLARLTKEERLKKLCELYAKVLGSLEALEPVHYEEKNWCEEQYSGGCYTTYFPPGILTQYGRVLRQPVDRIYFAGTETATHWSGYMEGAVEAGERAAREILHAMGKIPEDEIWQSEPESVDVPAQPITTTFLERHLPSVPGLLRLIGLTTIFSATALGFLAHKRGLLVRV

[6] = Apparent permeability of the compound in human Caco-2 cells at 25 uM measured after 2 hrs by LC-MS/MS analysis; assay type: ADME, cell-based
[7] = Solubility of compound in PBS at pH 7.0 at 100 uM measured for 20 mins by LC-MS/MS analysis; assay type: physicochemical
[8] = Metabolic stability in mouse liver microsome assessed as compound remaining at 500 uM measured at 60 mins by LC-MS/MS method; assay type: ADME; details: liver microsomes, read-out: Stability
SH-SY5Y = experiment: Cytotoxicity against human SH-SY5Y cells assessed as inhibition of cell viability at 10 uM after 24 hrs by MTS assay relative to control; assay type: functional
[9] = target: T2, Amine oxidase [flavin-containing] B (Homo sapiens, UniProt P27338); experiment: Inhibition of human MAO-B measure after 1 hr by microplate reader analysis
T2 sequence (P27338 whole entry): T1 sequence (P27338 whole entry)

[10] = target: T3, Amine oxidase [flavin-containing] A (Homo sapiens, UniProt P21397); experiment: Inhibition of human MAO-A measure after 1 hr by microplate reader analysis
T3 sequence (P21397 whole entry): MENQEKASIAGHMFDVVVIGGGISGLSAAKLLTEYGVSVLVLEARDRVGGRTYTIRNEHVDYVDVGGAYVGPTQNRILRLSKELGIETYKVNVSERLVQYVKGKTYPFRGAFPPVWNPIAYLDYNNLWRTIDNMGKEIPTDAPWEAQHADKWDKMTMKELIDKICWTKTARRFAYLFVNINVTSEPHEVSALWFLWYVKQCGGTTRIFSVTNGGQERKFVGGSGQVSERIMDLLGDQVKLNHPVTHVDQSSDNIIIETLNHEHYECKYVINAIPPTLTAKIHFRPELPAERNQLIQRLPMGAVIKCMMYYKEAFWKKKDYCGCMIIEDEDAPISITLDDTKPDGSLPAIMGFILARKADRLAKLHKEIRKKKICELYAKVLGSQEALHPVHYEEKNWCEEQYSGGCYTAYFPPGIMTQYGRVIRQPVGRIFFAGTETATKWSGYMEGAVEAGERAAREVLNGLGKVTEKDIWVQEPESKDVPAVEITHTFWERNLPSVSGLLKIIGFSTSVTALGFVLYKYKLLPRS

[11] = target: T3, Amine oxidase [flavin-containing] A; experiment: Inhibition of recombinant human MAO-A

| SMILES | logD [1] | remaining at 1 h [2] | remaining at 10 min [3] | remaining at 10 min [4] | activity at 10 µM [5] | Papp at 2 h, 25 µM [6] | solubility at 20 min, 100 µM [7] | remaining at 1 h [8] | pIC50 [9] | pIC50 [10] | pIC50 [11] | Activity (SH-SY5Y) |
| --- | --- | --- | --- | --- | --- | --- | --- | --- | --- | --- | --- | --- |
| COc1cc2c(cc1OC)CN(c1cc(F)cc(F)c1)CC2 |  |  |  |  | 24% |  |  |  | 5.29 | < 4.00 |  | 97.3% |
| COc1cc2c(cc1OC)CN(c1cc(C(F)(F)F)cc(C(F)(F)F)c1)CC2 | 5.7 | 62.2% | 98.7% | 83.1% | 86% | < 0.1 ×10⁻⁶ cm/s | < 0.5 µM | 26.9% |  |  |  |  |
| COc1cc2c(cc1OC)CN(CCCOc1ccc(C(C)=O)c(O)c1)CC2 |  |  |  |  |  |  |  |  |  |  | 5.09 |  |
| COc1cc2c(cc1OC)C(C)N(c1ccc(C=O)cc1)CC2 (stereo not drawn) | 4 | 18% | 66.1% | 15.5% |  | 7.4 ×10⁻⁶ cm/s | 22.2 µM (≈ 6.91 µg/mL) | 1% |  |  |  |  |
| COC(=O)c1ccccc1N1CCc2cc(OC)c(OC)cc2C1 | 4.3 | 0.2% | 7.2% | 0.4% | 103% | 2.1 ×10⁻⁶ cm/s | 12.7 µM (≈ 4.16 µg/mL) | 0.1% |  |  |  |  |

More lines, main results first:

| logD [1] | remaining at 1 h [2] | remaining at 10 min [3] | remaining at 10 min [4] | activity at 10 µM [5] | Papp at 2 h, 25 µM [6] | solubility at 20 min, 100 µM [7] | remaining at 1 h [8] | pIC50 [9] | pIC50 [10] | pIC50 [11] | SMILES | Activity (SH-SY5Y) |
| --- | --- | --- | --- | --- | --- | --- | --- | --- | --- | --- | --- | --- |
| 4.2 | 53.5% | 77.1% | 12.1% | 95% | 10.1 ×10⁻⁶ cm/s | 3.7 µM (≈ 1.11 µg/mL) | 1.7% |  |  |  | COc1ccc(N2CCc3cc(OC)c(OC)cc3C2)cc1 |  |
| 4.5 | 10.5% | 63.9% | 3.7% | 81% | 21 ×10⁻⁶ cm/s | 19.1 µM (≈ 5.14 µg/mL) | 0.4% |  |  |  | COc1cc2c(cc1OC)CN(c1ccccc1)CC2 |  |
| 3.1 | 79.5% | 97.8% | 92.6% | 79% | 26.8 ×10⁻⁶ cm/s | 93.9 µM (≈ 28.1 µg/mL) | 64.4% |  |  |  | COc1cc2c(cc1OC)CN(c1ccc(CO)cc1)CC2 |  |
| 4.5 | 56.9% | 56.8% | 2.5% | 57% | 20.4 ×10⁻⁶ cm/s | 20.3 µM (≈ 5.83 µg/mL) | 0.6% | 4.87 | < 4.00 |  | COc1cc2c(cc1OC)CN(c1ccc(F)cc1)CC2 | 104% |
